Data reported in the NIST ThermoML archive (doi:10.1016/j.fluid.2009.07.002).

Experiment: xn = mol fraction of the nth substance listed
Settings: 101 kPa, Liquid, Taylor dispersion method

OCCO [1,2-ethanediol] + O
binary diffusion coefficient [m2/s]
Settings | 298.2 K | 303.2 K | 308.2 K | 313.2 K | 318.2 K | 323.2 K
x1 = 0 | 1.1e-09 | 1.24e-09 | 1.38e-09 | 1.51e-09 | 1.68e-09 | 1.86e-09
x1 = 0.2 | 6.95e-10 | 8.14e-10 | 8.89e-10 | 9.8e-10 | 1.09e-09 | 1.19e-09
x1 = 0.4 | 4.82e-10 | 5.28e-10 | 5.8e-10 | 6.31e-10 | 7.57e-10 | 8.48e-10
x1 = 0.6 | 3.81e-10 | 4.02e-10 | 4.51e-10 | 5.18e-10 | 6e-10 | 6.88e-10
x1 = 0.8 | 3.18e-10 | 3.34e-10 | 4.05e-10 | 4.68e-10 | 5.24e-10 | 6.03e-10

OCCOCCO [diethylene glycol] + O
binary diffusion coefficient [m2/s]
Settings | 303.2 K | 308.2 K | 313.2 K | 318.2 K | 323.2 K
x1 = 0 | 1.04e-09 | 1.13e-09 | 1.25e-09 | 1.41e-09 | 1.53e-09
x1 = 0.2 | 4.69e-10 | 5.24e-10 | 6.02e-10 | 7.01e-10 | 7.83e-10
x1 = 0.4 | 3.18e-10 | 3.75e-10 | 4.45e-10 | 5.16e-10 | 5.71e-10
x1 = 0.6 | 2.82e-10 | 3.29e-10 | 3.93e-10 | 4.6e-10 | 5.37e-10
x1 = 0.8 | 2.56e-10 | 3.06e-10 | 3.72e-10 | 4.3e-10 | 5.03e-10

OCCOCCOCCO [triethylene glycol] + O
binary diffusion coefficient [m2/s]
Settings | 303.2 K | 308.2 K | 313.2 K | 318.2 K | 323.2 K
x1 = 0 | 8.15e-10 | 8.99e-10 | 9.94e-10 | 1.07e-09 | 1.18e-09
x1 = 0.2 | 3.71e-10 | 4.3e-10 | 5.1e-10 | 5.48e-10 | 6.3e-10
x1 = 0.4 | 2.78e-10 | 3.12e-10 | 3.7e-10 | 4.27e-10 | 4.8e-10
x1 = 0.6 | 2.33e-10 | 2.7e-10 | 3.25e-10 | 3.79e-10 | 4.44e-10
x1 = 0.8 | 2.01e-10 | 2.41e-10 | 2.98e-10 | 3.51e-10 | 4.15e-10
